Results reported in PMC12633732, “Dynamics of release and activity of select neuropeptides post-bloodmeal in the female mosquito, Aedes aegypti” (The Journal of Experimental Biology, 2025).
Read-outs that look alike come from different tables or passages of the source. Bridge positions count the residues as written; N and C are the ends. Square brackets hold non-standard residues; d marks the D form. Ends that are not written are not given here. Peptide text beside a SMILES is read from it. pGlu = O=C1CC[C@@H](C(=O)O)N1

Tests used:
Aedaekinin-R = target: T1, Aedaekinin-R (Aedes aegypti, UniProt Q5EY37); assay: Heterologous receptor functional activation bioluminescence assay, Aedaekinin-R; type: cell-based
T1 sequence (Q5EY37 1-584): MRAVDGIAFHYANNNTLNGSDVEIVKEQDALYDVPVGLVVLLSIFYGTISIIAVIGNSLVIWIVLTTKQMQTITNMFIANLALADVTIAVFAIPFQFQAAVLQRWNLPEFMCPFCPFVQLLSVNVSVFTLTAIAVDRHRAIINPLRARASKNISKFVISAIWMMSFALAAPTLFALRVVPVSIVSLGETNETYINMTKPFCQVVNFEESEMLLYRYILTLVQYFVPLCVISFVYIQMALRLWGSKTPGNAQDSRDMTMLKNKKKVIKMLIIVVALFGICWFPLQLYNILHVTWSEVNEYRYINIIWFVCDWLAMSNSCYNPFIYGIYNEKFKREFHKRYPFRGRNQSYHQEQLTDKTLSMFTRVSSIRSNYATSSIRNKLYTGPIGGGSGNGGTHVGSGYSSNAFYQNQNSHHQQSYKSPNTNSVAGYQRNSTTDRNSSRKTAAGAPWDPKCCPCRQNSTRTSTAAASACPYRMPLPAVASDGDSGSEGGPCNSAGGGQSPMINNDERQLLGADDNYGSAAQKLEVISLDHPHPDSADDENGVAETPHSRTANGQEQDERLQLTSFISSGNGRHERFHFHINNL
Source text: (§1) Gene-specific primers were designed to amplify the open reading frame of the AedaeDH31 receptor and Aedaekinin receptor based on previously published sequences [GenBank accession numbers: DH31-R, AAGE02017873 ([Kwon et al., 2012]); kinin-R, AY596453.1 ([Lu et al., 2011]); see Table 1]. The amplified PCR products were purified using a Monarch PCR purification kit (New England Biolabs, Whitby, ON, Canada) and reamplified using modified primers containing restriction sites for subsequent directional cloning in mammalian expression plasmids. Products were A-tailed and cloned into a pGEM-T Easy vector (Promega, Madison, WI, USA) or pCE2 TA/Blunt-Zero vector (GeneBio Systems, Burlington, ON, Canada) and then transformed into 5-alpha high efficiency competent E. coli (New England Biolabs, Whitby, ON, Canada). Base accuracy of purified plasmid DNA miniprep was confirmed by Sanger sequencing (The Centre for Applied Genomics, Sick Kids, Toronto, ON, Canada). The receptor constructs DH31-R and kinin-R were excised using standard restriction enzyme digestion and subcloned into the mammalian expression vectors, pBudCE4.1 Gα15 or pcDNA3.1^+ (Life Technologies, Burlington, ON, Canada), with the former containing a mammalian promiscuous G protein (Gα15), which facilitates coupling of a wide variety of GPCRs to calcium signaling ([Wahedi et al., 2019]). The previously characterized A. aegypti CAPA receptor inserted into pcDNA3.1^+ ([Sajadi et al., 2020]) was also used for transfection of mammalian cells. Plasmid DNA was purified from overnight bacterial cultures using the ZymoPURE II Plasmid Midiprep Kit (Zymo Research, Tustin, CA, USA) following manufacturer guidelines. These three heterologously expressed receptors were used to determine the timing of release and quantify the levels in the haemolymph of CAPA (both CAPA-1 and CAPA-2), DH31 along with kinin neuropeptides in association with blood feeding by adult female mosquitoes.
(§2) Functional activation of the AedaeDH31-R, AedaeCAPA-R, and Aedaekinin-R was assayed using a previously established recombinant Chinese hamster ovary (CHO)-K1 cell line stably expressing aequorin, referred to henceforth as CHO-K1-aeq cells ([Paluzzi et al., 2012a]; [Wahedi and Paluzzi, 2018]). […] Cells were grown and maintained in Dulbecco's modified eagles medium:nutrient F12 (DMEM:F12; 1:1) medium containing 10% heat-inactivated fetal bovine serum (FBS; Wisent, St. Bruno, QC, Canada), 1× antimycotic-antibiotic and 200 µg ml^−1 geneticin (G418 Sulfate). […] Approximately 48 h post-transfection, cells were dislodged from the culture flasks using 5 mmol l^−1 ethylenediaminetetraacetic acid (EDTA; Life Technologies, Burlington, ON, Canada) in DPBS and cells were resuspended in BSA medium (DMEM-F12 medium containing 0.1% bovine serum albumin, 1X antimycotic-antibiotic) at a concentration of 10^6–10^7 cells ml^−1 quantified using a Countess II FL cell counter (Thermo Fisher Scientific, Burlington, ON, Canada). Coelenterazine h (Promega, Madison, WI, USA) was added to the cells to a final concentration of 5 µmol l^−1 and incubated for 3 h, as described previously ([Oryan et al., 2018]) and subsequently, diluted 10-fold in BSA medium and incubated for an additional hour at room temperature. To measure in vivo circulating levels of DH31, kinin and CAPA in female mosquitoes, diluted haemolymph samples collected in 70 µl DPBS droplets (see section 3.2) were loaded in duplicates into 96-well white luminescence plates (Greiner Bio-One, Germany).

AedaeDH31-R = assay: Heterologous receptor functional activation bioluminescence assay, AedaeDH31-R; type: cell-based, Aedes aegypti; details: for EC50: CHO-K1-aeq cells transiently expressing AedaeDH31-R (pBudCE4.1 Gα15), aequorin luminescence over 20 s, peptides tested up to 10 µmol l^−1, read-out: EC50 on DH31-R
Source text: as §1, §2

[1] = system: Malpighian tubules (MTs) of adult female A. aegypti; design: species or system Aedes aegypti; details: for Effect of single diuretic on fluid secretion: 25 nmol l^−1 DH31, 100 nmol l^−1 5HT, 10 nmol l^−1 DH44, 50 nmol l^−1 CDP, 60 min, Fig. 5A
Method: In order to determine fluid secretion rates, modified Ramsay assays were performed as described previously ([Lajevardi et al., 2021]; [Sajadi et al., 2018]). Female adults (4–7 days old) were dissected under physiological Aedes saline adapted from [Petzel et al. (1987)] that contained (in mmol l^−1): 150 NaCl, 25 Hepes, 3.4 KCl, 7.5 NaOH, 1.8 NaHCO3, 1 MgSO4, 1.7 CaCl2 and 5 glucose, and titrated to pH 7.1. Individual MTs were removed and placed in a Sylgard-lined Petri dish containing 20 µl bathing droplets [1:1 mixture of Schneider's Insect Medium (Sigma-Aldrich, Oakville, ON, Canada): Aedes saline], immersed in hydrated mineral oil to prevent evaporation. The proximal end of each tubule was wrapped around a minutien pin to allow for fluid secretion measurements. Dose response analysis for AedaeDH31 was determined by using concentrations ranging from 10^−5 to 10^−12 mol l^−1 on unstimulated MTs. To investigate the effects of collected haemolymph samples on fluid secretion rate, haemolymph samples from both non-blood-fed and blood-fed females were used against unstimulated MTs and allowed to incubate for 60 min before measurement of secreted fluid droplets. To investigate potential additive or synergistic activity, dosages of 25 nmol l^−1 AedaeDH31, 10 nmol l^−1 Rhodnius prolixus DH (CRF-related peptide, DH44), 50 nmol l^−1 CDP, 100 nmol l^−1 5HT, and 1 fmol l^−1 AedaeCAPA-1 were used ([Sajadi et al., 2018], [2020]).

AedaeCAPA-R = target: T2, AedaeCAPA-R (Aedes aegypti, UniProt A0A7D5D2Z2); assay: cell-based
T2 sequence (A0A7D5D2Z2 1-712): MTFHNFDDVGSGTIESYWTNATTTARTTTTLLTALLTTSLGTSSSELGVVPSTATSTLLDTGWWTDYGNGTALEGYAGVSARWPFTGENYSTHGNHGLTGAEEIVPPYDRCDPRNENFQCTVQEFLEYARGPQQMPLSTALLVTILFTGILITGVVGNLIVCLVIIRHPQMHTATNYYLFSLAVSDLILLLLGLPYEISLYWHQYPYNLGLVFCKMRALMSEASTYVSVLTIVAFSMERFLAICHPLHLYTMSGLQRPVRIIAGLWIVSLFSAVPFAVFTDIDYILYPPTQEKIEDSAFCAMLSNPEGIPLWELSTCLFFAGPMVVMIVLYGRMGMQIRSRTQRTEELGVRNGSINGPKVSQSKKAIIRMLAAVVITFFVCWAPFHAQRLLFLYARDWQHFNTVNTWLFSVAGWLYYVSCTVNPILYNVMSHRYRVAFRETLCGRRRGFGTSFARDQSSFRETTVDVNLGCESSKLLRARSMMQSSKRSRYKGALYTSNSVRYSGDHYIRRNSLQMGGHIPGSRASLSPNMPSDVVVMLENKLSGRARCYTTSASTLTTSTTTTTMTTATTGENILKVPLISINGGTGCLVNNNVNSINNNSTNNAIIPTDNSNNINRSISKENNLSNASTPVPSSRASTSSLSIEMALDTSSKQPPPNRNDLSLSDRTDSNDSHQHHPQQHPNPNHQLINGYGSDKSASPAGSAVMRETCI
Source text: Gene-specific primers were designed to amplify the open reading frame of the AedaeDH31 receptor and Aedaekinin receptor based on previously published sequences [GenBank accession numbers: DH31-R, AAGE02017873 ([Kwon et al., 2012]); kinin-R, AY596453.1 ([Lu et al., 2011]); see Table 1]. The amplified PCR products were purified using a Monarch PCR purification kit (New England Biolabs, Whitby, ON, Canada) and reamplified using modified primers containing restriction sites for subsequent directional cloning in mammalian expression plasmids. […] These three heterologously expressed receptors were used to determine the timing of release and quantify the levels in the haemolymph of CAPA (both CAPA-1 and CAPA-2), DH31 along with kinin neuropeptides in association with blood feeding by adult female mosquitoes.
Functional activation of the AedaeDH31-R, AedaeCAPA-R, and Aedaekinin-R was assayed using a previously established recombinant Chinese hamster ovary (CHO)-K1 cell line stably expressing aequorin, referred to henceforth as CHO-K1-aeq cells ([Paluzzi et al., 2012a]; [Wahedi and Paluzzi, 2018]). […] To measure in vivo circulating levels of DH31, kinin and CAPA in female mosquitoes, diluted haemolymph samples collected in 70 µl DPBS droplets (see section 3.2) were loaded in duplicates into 96-well white luminescence plates (Greiner Bio-One, Germany).

[2] = CHO-K1-aeq cells transiently expressing Aedaekinin-R (pcDNA3.1+), aequorin luminescence over 20 s, peptides tested up to 10 µmol l^−1, read-out: EC50 on kinin-R

Molecule | EC50 (Aedaekinin-R; [2]) | EC50 (AedaeDH31-R) | other results
AGNSGANSGMWFGPRL-NH2 [PK1] | > 10 µM | > 10 µM | –
NCCc1c[nH]c2ccc(O)cc12 [5HT, 5-hydroxytryptamine] | – | – | Effect of single diuretic on fluid secretion [1]: significantly increased fluid secretion
MQRPQGPSLSVANPIEVLRSRLLLEIARRRMKEQDASRVSKNRQYLQQI-NH2 [DH44] | > 10 µM | > 10 µM | Luminescence response over background on AedaeDH31-R (AedaeDH31-R; 10^−6 mol l^−1 dose, Fig. 1B, n=3): no detectable activity; Effect of single diuretic on fluid secretion [1]: significantly increased fluid secretion
C[C@@H]1NC(=O)[C@H](C)NC(=O)[C@@H](NC(=O)CN)CSSC[C@@H](C(=O)N[C@@H](Cc2ccc(O)cc2)C(=O)NCC(=O)NCC(=O)N[C@@H](Cc2c[nH]cn2)C(N)=O)NC(=O)[C@H](C)NC(=O)[C@H](Cc2c[nH]cn2)NC(=O)CNC(=O)[C@H](Cc2ccccc2)NC1=O [CCHa2] (H-GCAAFGHACYGGH-NH2; disulfide 2-9 (inferred); N-terminus assumed) | – | > 10 µM | –
NPFHSWG-NH2 [CDP] | 0.0115 µM | – | –
CC(C)C[C@@H]1NC(=O)[C@@H](NC(=O)CNC(=O)CNC(=O)[C@@H](N)CCCCN)CSSC[C@@H](C(=O)N[C@@H](Cc2c[nH]c3ccccc23)C(=O)NCC(=O)NCC(=O)N[C@@H](Cc2c[nH]cn2)C(N)=O)NC(=O)[C@H](CO)NC(=O)[C@H](Cc2c[nH]cn2)NC(=O)CNC(=O)[C@H](Cc2ccc(O)cc2)NC(=O)[C@H](CO)NC1=O [CCHa1] (H-KGGCLSYGHSCWGGH-NH2; disulfide 4-11 (inferred); N-terminus assumed) | – | > 10 µM | –
TVDFGLSRGYSGAQEAKHRMAMAVANFAGGP-NH2 [DH31] | > 10 µM | – | EC50 [1]: 0.0136 µM
PVFFVASRY-NH2 [RYa-1] | > 10 µM | > 10 µM | –
CC(C)C[C@H](NC(=O)[C@@H]1CCC(=O)N1)C(=O)N[C@H](C(=O)N[C@@H](Cc1ccccc1)C(=O)N[C@H](C(=O)N1CCC[C@H]1C(=O)N[C@@H](CO)C(=O)N[C@@H](Cc1c[nH]c2ccccc12)C(N)=O)[C@@H](C)O)[C@@H](C)O [AKH] ([pGlu]LTFTPSW-NH2) | – | > 10 µM | EC50 (Aedaekinin-R): > 10 µM
GPTVGLFAFPRV-NH2 [CAPA1] | > 10 µM | – | EC50 (AedaeCAPA-R): 0.00183 µM
CC(C)[C@H](NC(=O)[C@@H]1CCC(=O)N1)C(=O)N[C@H](C(=O)N[C@@H](Cc1ccccc1)C(=O)N[C@@H](CO)C(=O)N[C@@H](CCCNC(=N)N)C(=O)N[C@@H](CC(=O)O)C(=O)N[C@@H](Cc1c[nH]c2ccccc12)C(=O)N[C@@H](CC(N)=O)C(=O)N[C@@H](C)C(N)=O)[C@@H](C)O [ACP] ([pGlu]VTFSRDWNA-NH2) | – | > 10 µM | EC50 (Aedaekinin-R): > 10 µM
CSCC[C@H](NC(=O)[C@H](CC(N)=O)NC(=O)[C@@H]1CSSC[C@H](NC(=O)[C@H](CC(C)C)NC(=O)[C@H](CO)NC(=O)[C@H](CCSC)NC(=O)[C@@H](N)Cc2ccc(O)cc2)C(=O)N[C@@H](Cc2c[nH]cn2)C(=O)N[C@@H](Cc2ccccc2)C(=O)N[C@@H](CCCCN)C(=O)N[C@@H](CC(C)C)C(=O)N1)C(N)=O [CNMa] (H-YMSLCHFKLCNM-NH2; disulfide 5-10 (inferred); N-terminus assumed) | – | > 10 µM | –
